The values below are quoted from earlier work in patent US20170304358A1, “PRIMARY AND SECONDARY PREVENTION OF DEMENTIAS AND SUICIDE WITH TRACE DOSE LITHIUM” (priority 2014, published 2017).

The test system of data set [1] is cognition in persons with MCI. As to conditions: micro-doses (<0.28 mg/d of lithium carbonate).
For data set [2] the following is noted: standard doses of lithium.

SMILES strings stand for the structures.

As to `O=C([O-])[O-].[Li+].[Li+]` [Lithium carbonate, lithium carbonate], the “benefit for cognition in MCI” value in data set [1] is recorded as “some benefit for cognition”. In the case of `[Li]` [lithium], the adverse side effects entry in data set [2] is “renal toxicity”.
